Assay results from ChEMBL document CHEMBL1201862, “PubChem BioAssay data set” (2004).
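Briefly, cells in 96-well plates were exposed to five compound concentrations for 48 h, and endpoints were estimated by linear interpolation. Here, GI50 denotes the concentration required for 50% inhibition of growth.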 Activity calls are given as the source filed them. Cut-off read from the data, not from the text of the source: active = GI50 up to about 1.1 µM and inactive = higher.

Key:
Assay in all cases: growth of human tumour cells (NCI), 48 h
786-0 = test system: 786-0
A498 = test system: A498
A549 = test system: A549
ACHN = test system: ACHN
BT-549 = test system: BT-549
CAKI-1 = test system: CAKI-1
CCRF-CEM = test system: CCRF-CEM
COLO 205 = test system: COLO 205
DU-145 = test system: DU-145
EKVX = test system: EKVX
HCC 2998 = test system: HCC 2998
HCT-116 = test system: HCT-116
HCT-15 = test system: HCT-15
HL-60 = test system: HL-60
HOP-62 = test system: HOP-62
HT-29 = test system: HT-29
Hs-578T = test system: Hs-578T
IGROV-1 = test system: IGROV-1
K562 = test system: K562
KM12 = test system: KM12
LOX IMVI = test system: LOX IMVI
M14 = test system: M14
MCF7 = test system: MCF7
MDA-MB-231 = test system: MDA-MB-231
MDA-MB-435 = test system: MDA-MB-435
MDA-N = test system: MDA-N
MOLT-4 = test system: MOLT-4
Malme-3M = test system: Malme-3M
NCI-H226 = test system: NCI-H226
NCI-H23 = test system: NCI-H23
NCI-H460 = test system: NCI-H460
NCI-H522 = test system: NCI-H522
OVCAR-8 = test system: OVCAR-8
PC-3 = test system: PC-3
RPMI-8226 = test system: RPMI-8226
SF-268 = test system: SF-268
SF-295 = test system: SF-295
SF-539 = test system: SF-539
SK-MEL-28 = test system: SK-MEL-28
SK-MEL-5 = test system: SK-MEL-5
SK-OV-3 = test system: SK-OV-3
SN12C = test system: SN12C
SNB-19 = test system: SNB-19
SNB-75 = test system: SNB-75
SR = test system: SR
SW-620 = test system: SW-620
T47D = test system: T47D
TK-10 = test system: TK-10
UACC-257 = test system: UACC-257
UACC-62 = test system: UACC-62
UO-31 = test system: UO-31

For CC1=NC(=Cc2cccc(Cl)c2)C(=O)N1n1c(-c2ccccc2)nc2ccccc2c1=O, the GI50 (786-0) was 48.6 µM (inactive), the GI50 (A498) was 26.4 µM (inactive) and the GI50 (A549) was 35.8 µM (inactive). The GI50 (ACHN) was 24.5 µM (inactive), the GI50 (BT-549) was 34.7 µM (inactive) and the GI50 (CAKI-1) was 22.8 µM (inactive). The GI50 (CCRF-CEM) was 35.6 µM (inactive), the GI50 (COLO 205) was 36.1 µM (inactive) and the GI50 (DU-145) was 38.9 µM (inactive). The GI50 (EKVX) was 21.2 µM (inactive), the GI50 (HCC 2998) was 24.5 µM (inactive) and the GI50 (HCT-116) was 36.5 µM (inactive). For the same compound, the GI50 (HCT-15) was 39.3 µM, the GI50 (HL-60) was 22.8 µM (inactive) and the GI50 (HOP-62) was 24.5 µM (inactive). For the same compound, the GI50 (HT-29) was 36 µM (inactive), the GI50 (Hs-578T) was 24.5 µM (inactive) and the GI50 (IGROV-1) was 23.2 µM (inactive). The GI50 (K562) was 41.6 µM (inactive), the GI50 (KM12) was 31.6 µM (inactive) and the GI50 (LOX IMVI) was 25.9 µM (inactive). For the same compound, the GI50 (M14) was 31.4 µM (inactive), the GI50 (MCF7) was 20.4 µM (inactive) and the GI50 (MDA-MB-231) was 48.5 µM (inactive). For the same compound, the GI50 (MDA-MB-435) was 41 µM (inactive), the GI50 (MDA-N) was 30.4 µM (inactive) and the GI50 (MOLT-4) was 27.9 µM (inactive). For the same compound, the GI50 (Malme-3M) was 26.9 µM (inactive), the GI50 (NCI-H226) was 90.4 µM (inactive) and the GI50 (NCI-H23) was 25.6 µM (inactive). For the same compound, the GI50 (NCI-H460) was 19.3 µM (inactive), the GI50 (NCI-H522) was 17.5 µM (inactive) and the GI50 (OVCAR-8) was 43.4 µM (inactive). The GI50 (PC-3) was 31.3 µM (inactive), the GI50 (RPMI-8226) was 30.2 µM (inactive) and the GI50 (SF-268) was 65.3 µM (inactive). The GI50 (SF-295) was 35.7 µM (inactive), the GI50 (SF-539) was 36.1 µM (inactive) and the GI50 (SK-MEL-28) was > 10 µM (inactive). The GI50 (SK-MEL-5) was 28.2 µM (inactive), the GI50 (SK-OV-3) was 37.8 µM (inactive) and the GI50 (SN12C) was 40.4 µM (inactive). For the same compound, the GI50 (SNB-19) was 59.2 µM (inactive), the GI50 (SNB-75) was 35.9 µM (inactive) and the GI50 (SR) was 25.2 µM (inactive). The GI50 (SW-620) was 55 µM (inactive), the GI50 (T47D) was 19.8 µM (inactive) and the GI50 (TK-10) was 50.6 µM (inactive). For the same compound, the GI50 (UACC-257) was 28.6 µM (inactive), the GI50 (UACC-62) was 23.6 µM (inactive) and the GI50 (UO-31) was 39 µM (inactive).
